Reference: PMC6669903 (Neuron, 2019)

Assays:
[1] = system: Tiam1 phosphorylation by CaMKII in neurons in dissociated culture; experiment: Tiam1 phosphorylation after chemical LTP, Phos-tag SDS-PAGE; type: cell-based, rat; settings: KN-93 10 µM; glycine 200 µM for 10 min
Rac1 = Rac1 activity in spines by FRET-FLIM sensor during sLTP; type: cell-based, rat; settings: change in lifetime of GFP-Rac1 in stimulated spines; uncaging 0.5 Hz
Tiam1/CaMKII complex = type: cell-based; settings: bath application (AP5, KN-93) or cotransfection (CaMKIIN)
[2] = system: dendritic spines of CA1 pyramidal neurons in hippocampal organotypic slice cultures; experiment: structural LTP; type: cell-based, rat

Row | SMILES | effect on persistent Tiam1 phosphorylation after chemical LTP [1] | effect on Rac1 activation during sLTP (Rac1) | effect on Tiam1/CaMKII interaction after sLTP induction (Tiam1/CaMKII complex) | effect on established sLTP, drug added 5 min after induction ([2]; applied 5 min after sLTP induction) | effect on established sLTP, drug added 15 min after induction ([2]; applied 15 min after sLTP induction) | effect on sLTP, drug added before induction ([2]; applied 30 min before sLTP induction, spines visualized by untagged GFP)
1 | COc1ccc(S(=O)(=O)N(CCO)c2ccccc2CN(C)C/C=C/c2ccc(Cl)cc2)cc1 [KN-93] | blocked | effectively blocked the activation of Rac1 | blocked |  |  | 
2 | N[C@H](CCCP(=O)(O)O)C(=O)O [AP5, D-(−)-2-Amino-5-phosphonopentanoic acid] |  |  | blocked |  |  | 
3 | O=c1cc(CN2CCOCC2)occ1OCCCCCSc1ccnc2cc(C(F)(F)F)ccc12 [EHT1864] |  |  |  | effectively blocked sLTP | effectively blocked sLTP | effectively inhibited sLTP
